Data as given in patent US20140073694A1, “CYSTAMINE ANALOGUES FOR THE TREATMENT OF PARKINSON'S DISEASE” (UNIVERSITE LAVAL, priority 2011, published 2014).
“Also recorded” adds a separate entry of the source.

Assay: Plasma and brain metabolite levels by HPLC after a single i.p. cystamine injection (dose-response study)
Format: in vivo, C57BL/6 mice
Protocol: Young adult (9-week old, 25 g) male C57BL/6 mice were purchased from Charles River Laboratories (Montréal, QC, Canada). Animals were housed four per cage under standard conditions with free access to food and water, randomized and handled under the same conditions by one investigator. All experiments were performed in accordance with the Canadian Council on Animal Care and were approved by the Institutional Committee of the Centre Hospitalier de l'Université Laval (CHUL). Throughout the experiment, the health status of all mice included in the study was closely monitored. To clearly identify the active intermediate following cystamine injection, as well as to understand its systemic and cerebral metabolism, a single intraperitoneal (i.p.) injection of cystamine was administered to normal adult C57BL/6 male mice using three different doses: 10, 50, and 200 mg/kg, as determined in prior publications (Tremblay et al. 2006; Gibrat et al. 2010). These doses were ultimately compared with saline injections. Cystamine was dissolved in sterile saline (0.9%) and injected 1, 3, 12, 24 and 48 h before killing. Animals were sacrificed under deep anesthesia with ketamine/xylazine and perfused via intracardiac infusion with 0.1 M phosphate-buffered saline. After intracardiac perfusion, brains were collected, snap-frozen in 2-methyl-butane and then stored at −80° C. until cryostat dissection for HPLC analyses. A total of 200 mice were assigned to this study (n=10 per group).
HPLC coupled to fluorescence detection was used in cysteine and cysteamine quantification of both sets of experiments: the dose-response study and in situ cerebral perfusion (ISCP) procedures. Frontal cortex were homogenized in 200 μL of NaHCO3 and then centrifuged at 15 700 g (4° C.) for 20 min. Fifty μl of supernatant were directly derivatized with 30 μL of 4-fluoro-7-sulfamoylbenzo-furazan (ABD-F) reagent. The alkylation reaction was completed at 55° C. for 15 min and stopped with 4.9 μL HCl 12 N. After a 10-min centrifugation at 7500 g (4° C.), the supernatant were immediately injected into the chromatograph consisting of a Waters 717 plus autosampler automatic injector set at 4° C., a Waters 1525 binary pump equipped with an Atlantis dC18 ([…]; 3.9×150 mm) column, and a Waters 2487 Dual Absorbance detector (Waters limited, Lachine, QC, Canada). The excitation was set at 385 nm and emission at 515 nm. The mobile phase, which consisted in 2.5% methanol and 0.1 M ammonium acetate adjusted at pH 4.0, was delivered at 1 mL/min (Santa et al. 2006). Peaks were identified and quantified using Breeze software (Waters limited). HPLC quantifications were normalized to protein concentrations. Protein measurements were determined with a bicinchoninic acid protein assay kit (Pierce, Rockford, Ill., USA) as described by the manufacturer's protocol.
Taurine and hypotaurine were measured by HPLC coupled with UV detection. Supernatant from NaHCO3 brain (bregma 1.54 to −0.58 mm) extracts (see section above for details) were directly derivatized with the reagent dansyl chloride (Sigma-Aldrich, St. Louis, Mo., USA) based on modified published methods (Saller and Czupryna 1989; Calon et al. 1999). Briefly, 50 μL of dansyl chloride (1.2 mg/mL) and 50 μL of sample or standard solution were mixed and then incubated for 30 min at 90° C. After a 10-min centrifugation at 7500 g (4° C.), supernatants were immediately injected into the chromatograph described above. Absorbance was set at 337 nm and the sensitivity at 0.5 absorbance unit full scale. […] Results were obtained using the same method as described above.

[1] = single i.p. cystamine 10, 50 or 200 mg/kg
[2] = single i.p. cystamine 10, 50 or 200 mg/kg, 1-48 h

NCCSSCCN [cystamine, Cystamine]
plasma cysteamine level (cystamine-treated mice, single i.p. dose): undetectable | brain cysteamine level (single i.p. cystamine 50 mg/kg, 1 h post-injection, vs saline): significant increases; also recorded: significantly increased | brain cysteamine level (single i.p. cystamine 200 mg/kg, 1 h post-injection, vs saline): significant increase | plasma hypotaurine level [1]: remained under or close to the detection threshold | plasma taurine level [1]: remained under or close to the detection threshold | brain hypotaurine level [2]: no significant alteration | brain taurine level [2]: no significant alteration | brain cysteamine level (single i.p. cystamine (200 mg/kg per FIG. 7), 3 h post-injection, vs saline): remained significantly elevated; also recorded: significant increase | brain cysteamine level (single i.p. cystamine, all three doses (10, 50, 200 mg/kg), each time point): marked increased in brain cysteamine | plasma cysteine level (single i.p. cystamine, up to 200 mg/kg (data not shown)): did not affect | brain cysteine level (single i.p. cystamine, up to 200 mg/kg, all time points): did not affect; also recorded: stable
